Columns and labels:
[1] = tested on: hyaluronic acid production in human dermal fibroblasts; test: Hyaluronic acid synthesis effect in vitro (Hyaluronan ELISA); format: cell-based; settings: 24 hours, concentrations of Table 2, (sample − negative control) ÷ negative control × 100
Excerpt: (§1) For the evaluation of in vitro skin improvement efficacy, chondroitin sulfate (CS), glutamine (Q), arginine (R), Examples 1 and 2 (CS-R complex and CS-Q complex), and Comparative Examples 1 and 2 (CS/R mixture and CS/Q mixture) were used as culture solutions, and were ultimately included at the concentrations shown in the following Table 2 in each evaluation.
To compare the skin moisturizing effects of chondroitin sulfate (CS), arginine (R), and glutamine (Q), a simple mixture of chondroitin sulfate and an amino acid (CS/AA mixture), and a chondroitin sulfate-amino acid complex (CS-AA complex), human dermal fibroblasts were used to confirm whether the production of hyaluronic acid was increased.
Specifically, fibroblasts were cultured in a DMEM medium containing 10% FBS until the cells occupied 80% of the culture dish. Subsequently, the cells were treated with each sample at a predetermined concentration according to Table 2 for 24 hours, and then the concentration of hyaluronic acid was measured using a Hyaluronan ELISA kit (R&D systems, catalog No. DY3614-05).

[2] = tested on: type I collagen (procollagen type 1-C propeptide, PICP) in human fibroblasts; test: Collagen synthesis effect in vitro (PICP EIA); format: cell-based; settings: 48 hours, concentrations of Table 2, (sample − negative control) ÷ negative control × 100
Excerpt: as §1
To compare the wrinkle amelioration effects of chondroitin sulfate (CS), arginine (R), and glutamine (Q), a simple mixture of chondroitin sulfate and an amino acid (CS/AA mixture), and a chondroitin sulfate-amino acid complex (CS-AA complex), the effect of promoting the synthesis of type I collagen was confirmed using skin fibroblasts. For the evaluation, procollagen type 1-C propeptide (PICP), which is typically synthesized in the highest amount in fibroblasts, was quantified.
Specifically, human fibroblasts were aliquoted at 1×10^5 cells/well in a 48-well culture plate and cultured in a Dulbecco's Modified Eagle's Medium (DMEM, Gibco) medium containing 10% fetal bovine serum (FBS) for 24 hours. Subsequently, the medium was replaced with a serum-free DMEM medium containing 2 wt % of each culture solution according to Table 2 to treat cells with an analyte for 48 hours. Next, 20 μl of the culture supernatant was taken to measure the degree of collagen increase at each concentration at 450 nm using a Procollagen Type-1-C-peptide Enzyme Immuno Assay (PICP EIA) kit.

human fibroblasts = test: Cell activity effect in vitro (CCK-8); format: cell-based; settings: 48 hours, CCK-8, concentrations of Table 2, (sample − negative control) ÷ negative control × 100, in %
Excerpt: as §1
To compare the effects of chondroitin sulfate (CS), arginine (R), and glutamine (Q), a simple mixture of chondroitin sulfate and an amino acid (CS/AA mixture), and a chondroitin sulfate-amino acid complex (CS-AA complex) on skin cell activity, human fibroblast culture was used to confirm whether cell activity was increased.
Specifically, human fibroblasts were aliquoted at 5×10^3 cells/well and cultured in a DMEM medium containing 10% FBS for 24 hours. Subsequently, the culture medium was removed, and the cells were treated with each sample at a predetermined concentration according to Table 2 for 48 hours. Then, a reagent provided in a CCK-8 kit (DOJINDO, Cell Counting Kit-8, catalog No. CK04) was added, the resulting mixture was incubated for 4 hours, and then absorbance was measured at 450 nm using an ELISA reader.

[3] = Zeta-potential analysis by dynamic light scattering (Zetasizer Nano-ZS); format: physicochemical; settings: dispersed in distilled water, triplicate, several peaks printed with their share (%)
Method: To analyze the binding characteristics in the complexes of Examples 1 and 2, particle size analysis and zeta-potential analysis were performed. Chondroitin sulfate (CS), arginine (R), and glutamine (Q), a simple mixture of chondroitin sulfate and arginine or glutamine (CS/R or CS/Q mixture), and a complex of chondroitin sulfate and arginine or glutamine (CS-R or CS-Q complex) were analyzed by dynamic light scattering using a Zetasizer Nano-ZS (Malvern Instruments, Worcester, UK) to measure the particle size (effective dynamic diameter), particle size distribution and zeta potential of the samples dispersed on a colloid. Samples for the measurements were prepared by being dispersed in distilled water, and an automatic temperature-controlled cell with a scattering angle of 90° and software provided by the manufacturer were used. After measurement was conducted in triplicate for each sample, a zeta-potential value was calculated, and the results are shown in the following Table 1.

[4] = tested on: Raw 264.7 cells (NO production); test: Suppression of NO production in LPS-treated macrophages (Griess); format: cell-based, mouse; settings: Raw264.7 cells, sample 30 minutes then 500 ng/ml LPS 18 hours, concentrations of Table 2
Excerpt: as §1
To compare the skin soothing effects of chondroitin sulfate (CS), arginine (R), and glutamine (Q), a simple mixture of chondroitin sulfate and an amino acid (CS/AA mixture), and a chondroitin sulfate-amino acid complex (CS-AA complex), mouse macrophage cell line Raw 264.7 cells (ATCC, catalog No. CRL-2788) was used to confirm whether the production of NO was suppressed.
Specifically, Raw264.7 cells were aliquoted at 1 to 2×10^5 cells/ml in a 24-well tissue culture plate and cultured in a DMEM medium containing 10% FBS for 24 hours. The culture was carried out in a 5% CO2 incubator. Subsequently, the medium was replaced with a serum-free medium, and the cells were starved for 12 hours, and then treated with each sample at a predetermined concentration according to Table 2 for 30 minutes. After the sample treatment was completed, the cells were treated with 500 ng/ml lipopolysaccharides (LPS, SIGMA, catalog No. L43901) and then cultured for an additional 18 hours. Next, the culture supernatant was taken, transferred to a 96-well tissue culture plate and reacted with GREISS reagent (SIGMA, catalog No. G4410) at room temperature for 15 minutes, and then absorbance was measured at 540 nm using an ELISA reader. Thereafter, NO was quantified using the measured absorbance, and the reduction rate of NO produced in the experimental group compared to the positive control treated with 20 μg/ml of L-NMMA was calculated as (the value of the positive control−the value of the sample treatment group)÷the value of the negative control×100, which was used as a NO production suppression ability.

[5] = tested on: Zonula Occludens-1 (ZO-1) in HaCaT cells; test: mRNA expression of tight junction protein ZO-1 (real-time PCR); format: cell-based, human; settings: 24 hours, concentrations of Table 2, (sample − negative control) ÷ negative control × 100
Excerpt: as §1
To compare the skin barrier recovery effects of chondroitin sulfate (CS), glutamine (Q), a simple mixture of chondroitin sulfate and glutamine (CS/Q mixture), and a chondroitin sulfate-glutamine complex (CS-Q complex), it was confirmed whether the expression of Zonula Occludens-1 (ZO-1), one of the proteins that make up the tight junctions at the intercellular junctions in the skin barrier, was increased.
Specifically, human keratinocyte cell line HaCaT cells were first cultured at 37° C. in a 5% CO2 environment in a DMEM medium (Gibco, Waltham, MA, USA) supplemented with 10% fetal bovine serum (FBS, Gibco, Waltham, MA, USA), […] penicillin, and […] streptomycin. […] The concentration of the extracted RNA was quantified, and 1 μg of RNA was reacted with a cDNA synthesis kit (ET21100, PhileKorea Technology) at 42° C. for 30 minutes and 72° C. for 10 minutes to synthesize cDNA. […]

[6] = tested on: Staphylococcus epidermidis; test: Growth rate of beneficial skin bacterium (optical density); format: cell-based; settings: TSB medium, 30 to 37° C., 6 to 18 hours, concentrations of Table 2; relative to negative control
Method: To evaluate the prebiotic ability of Example 2, the degrees of enhancement in beneficial bacteria among the skin resident flora were compared before and after the CS or Example 2 treatment. Staphylococcus epidermidis was selected as a representative beneficial bacterium, and the growth rates of the beneficial bacterium were compared before and after treatment with the materials.
The growth rate of the beneficial bacterium was evaluated by the following method. A sterile liquid medium was prepared using a commercial tryptic soy broth (TSB, DFICO) medium, and a glycerol stock of S. epidermidis was inoculated into the sterile liquid TSB medium and pre-cultured at 30 to 37° C. for 6 to 18 hours. Such a pre-culture was performed once to twice. Thereafter, chondroitin sulfate (CS) and Example 2 were added to a sterile liquid TSB medium at each predetermined concentration according to Table 2, and the preculture solution was inoculated to culture cells at 30 to 37° C. for 6 to 18 hours.
After culture, the optical density (OD) immediately after inoculation and the optical density during the stationary phase of growth were measured, and the ratio of these values (growth rate) was compared. […] After the evaluation was carried out three times, the average growth rate, the standard deviation, and the like were calculated, and then the significance was verified by a t-test.

| Compound | Hyaluronic acid synthesis ability [1] | Collagen type 1 synthesis ability [2] | Cell activity ability (human fibroblasts) | Zeta potential (mV) [3] [mV] | NO production suppression ability [4] | ZO-1 expression ability [5] | S. epidermidis growth rate (%) [6] [%] |
| --- | --- | --- | --- | --- | --- | --- | --- |
| N=C(N)NCCC[C@H](N)C(=O)O [Arginine (R), arginine] | −2.1 | −12.58 | −12.79 | −4 | 30.3 | – | – |
| NC(=O)CC[C@H](N)C(=O)O [Glutamine (Q), glutamine] | 2.8 | 2.78 | −11.66 | – | 20.4 | 11.0 | – |
| CC1=C(/C=C/C(C)=C/C=C/C(C)=C/C(=O)O)C(C)(C)CCC1 [Retinoic acid] | 16.8 | – | – | – | – | – | – |
| TGF-b | – | 21.15 | – | – | – | – | – |
| chondroitin sulfate [Chondroitin sulfate (CS)] | 1.8 | 3.55 | 8.74 | −18 | 25.6 | 25.0 | 6.081 |
